No end group written: not given here.
Columns and labels:
[1] = target: T1, NR2B (Mus musculus, UniProt Q01097); assay: GST-pulldown of NR2B from hippocampus extract by GST fusion proteins of D2R regions; assay type: binding; settings: 500 μg hippocampus extract, overnight, 4° C.
T1 construct: from tissue; host or cells: hippocampus extract
Method: In order to search for the physical interaction site between D2R and NR2B, cDNA fragments of the CT region of D2R (T428-C443) and the third intracellular loop (IL3) region of D2R (K211-Q373) were first obtained via the D2R full-length cDNA clone (Genbank Accession No.: M29066.1). These fragments were subcloned to the BamH1/EcoR1 or BamH1/Xho1 site of a pGEX-4T-3 plasmid (YouBio, Item No: VT1255). Initiation methionine residue and termination codon were added as appropriate. All constructs were resequenced to confirm that splice fusion was achieved appropriately. The GST fusion protein containing the IL3 region of D2R (GST-D2R-IL3) and the GST fusion protein containing the CT region of D2R (GST-D2R-CT) were obtained by using E.coli BL21 viable cells (AlpalifeBio, Item No: KTSM104L) for expression and purifying them from bacterial lysate, wherein the specific positions of the coding sequences of IL3 region and CT region on D2R were shown in FIG. 2.
500 μg of dissolved hippocampus extract was diluted with 1×PBS/0.1% Triton X-100 and incubated overnight with 20 μl protein GST resin (TransGen Biotech, Item No: N21220, Beijing, China) saturated with GST protein only or with the prepared 15 µg GST fusion protein at 4° C. Beads were washed 1-8 times with 1×PBS/0.1% Triton X-100. Binding proteins were eluted with 2×loading buffer, separated by SDS-PAGE, and subjected to Western blot with respective antibodies thereof, and the results were shown in A of FIG. 3.
Next, in order to further explore the interaction sequence/site between D2R and NR2B, the IL3 region was divided into KVC (K211-V270) region of D2R, ES (E271-S321) region of D2R and PQ (P322-Q373) region of D2R.
According to the method in the present Example, a pulldown analysis was performed using a GST fusion protein containing the KVC region of D2R (GST-D2R-KVC), a GST fusion protein containing the ES region of D2R (GST-D2R-ES), and a GST fusion protein containing the PQ region of D2R (GST-D2R-PQ), and the results of Western blot were shown in B of FIG. 3.
Further, the KVC region was divided into KT (K211-T225) region of D2R, KL (K226-L240) region of D2R, KV (K241-V255) region of D2R, and IV (1256-V270) region of D2R.
According to the method in the present Example, a pulldown analysis was performed using a GST fusion protein containing the KT region of D2R (GST-D2R-KT), the GST fusion protein containing the KL region of D2R (GST-D2R-KL), a GST fusion protein containing the KV region of D2R (GST-D2R-KV), and a GST fusion protein containing the IV region of D2R (GST-D2R-IV), and the results of Western blot were shown in C of FIG. 3.

[2] = target: T2, D2R/NR2B complex (Mus musculus, UniProt Q01097); assay: Co-immunoprecipitation of hippocampus tissue from polypeptide-treated CPP mice and BS mice; assay type: in vivo
T2 construct: Co-immunoprecipitation was performed using a protein sample (100-500 μg protein) from hippocampus tissue; from tissue; host or cells: hippocampus tissue of CPP and BS mice treated in vivo
Method: Co-immunoprecipitation was performed using a protein sample (100-500 μg protein) from hippocampus tissue. NR2B and D1R or D2R were precipitated using an anti-NR2B and D2R, D2R or NR2B and 25 μl protein A/G+agarose bead slurry (SantaCruz Biotechnology, sc-2001), respectively.
The protein was then isolated on 8% SDS-PAGE gel and detected with a mouse antibody against NR2B and D2R. HRP-coupled secondary antibody and enhanced chemiluminescence method were used to detect the protein. Density analysis of bands was performed using image laboratory software.
In order to verify the effect of KT polypeptide of D2R on the D2R/NR2B complex in vivo, the C terminal of the region (K211-T225) was fused to the N terminal of transduction domain of HIV-1-type Tat protein (as set forth in SEQ ID NO: 6, hereinafter referred to as TAT) to obtain a fusion protein which can permeate blood-brain barrier, named TAT-D2R-KT.
CPP mice and BS mice were treated with TAT-D2R-KT respectively, and mice treated with TAT only were used as control (all treated by single intraperitoneal administration, 10 ml/kg body weight, medicament concentration 3 nmol/g). After 1 hour of treatment, analysis was performed according to the co-immunoprecipitation method in Example 1, and the results were shown in FIG. 4.

[3] = test system: morphine-induced CPP in mice; assay: Effects of different polypeptides on morphine-induced CPP in mice; assay type: in vivo; settings: 3 nmol/g i.p. on Day 10, recorded on the second day after administration; TAT fusion peptides; n=12
Method: The CPP equipment used in the experiment has two equal-volume chambers (15 cm×15 cm×37 cm) with a movable door in the middle. Mice could freely shuttle between chambers during testing, or were limited to one side of the chamber during training. The interior of one chamber is black and the bottom is striped, while the other chamber is white and the bottom is latticed. All behavioral tests, including distance and time of activity, were recorded by a camera and calculated using the SMART Video Tracking System (Version 2.5; Panlab Technology for Biosearch, Spain).
On Day 1, mice were allowed to explore two chambers freely for 15 min without any treatment (before testing). On Day 2, 4, 6 and 8, control group (saline group) and model group (morphine group) received saline (10 mL/kg) and morphine (10 mg/kg), respectively. TAT group (3 nmol/g) and TAT-D2R-KT group (3 nmol/g) were injected (intraperitoneally, 10 ml/kg body weight) 1 hour before morphine injection. After injection, all mice were trained in the white chamber for 40 min. On Day 3, 5, 7 and 9, all mice were given normal saline, and then immediately placed in the black chamber for 40 min; on Day 10, after all mice explored freely for 15 min, the test ended, and the CPP scores (moving duration of mice) were shown in FIG. 6.
(§1) Then, the C-terminal of Pep1 to Pep5 was fused to the N-terminal of TAT respectively to obtain fusion peptides which could penetrate the blood-brain barrier.
Mice were given morphine (1 mg/kg) or normal saline for 8 days, and different polypeptides (3 nmol/g) of Example 9 were administered to mice via intraperitoneal injection (10 ml/kg) on Day 10; the expression of morphine-induced CPP was recorded according to the CPP experimental method in Example 5 on the second day after administration, and the results were shown in FIG. 17.

[4] = test system: cocaine-induced behavioral sensitization in mice; assay: Effects of different polypeptides on cocaine-induced behavioral sensitization in mice; assay type: in vivo; settings: 3 nmol/g i.p. 1 hour before cocaine (15 mg/kg) on sixth day of pause; TAT fusion peptides; n=10
Method: as §1
In order to verify that the polypeptide of the invention is also effective against cocaine-induced addiction, the following tests were carried out:
Mice were given cocaine (15 mg/kg) or normal saline and then tested for 30 minutes, repeated for 5 days, and followed by a 5-day pause of administration. On the sixth day of the pause, 1 hour before cocaine administration, different polypeptides of Example 9 (3 nmol/g) were administered to mice via intraperitoneal injection (10 ml/kg) for drug induction, and a testing was carried out, and the results were shown in FIG. 18.

[5] = test system: alcohol-induced behavioral sensitization in mice; assay: Effects of different polypeptides on alcohol-induced behavioral sensitization in mice; assay type: in vivo; settings: 3 nmol/g i.p. 1 hour before alcohol (2.2 g/kg) on third day after training; TAT fusion peptides; n=10
Method: as §1
In order to verify that the polypeptide of the invention is also effective against alcohol-induced addiction, the following tests were carried out:
The training period lasted for 10 days, during which mice were administered alcohol (2.2 g/kg) or normal saline every other day and then immediately tested for 15 minutes. On the third day after training, 1 hour before alcohol administration, different polypeptides of Example 9 (3 nmol/g) were administered to mice via intraperitoneal injection (10 ml/kg) for drug induction, and a testing was carried out, and the results were shown in FIG. 19.

[6] = target: binding of D2R to NR2B (Homo sapiens, UniProt Q13224); settings: Liu et al., Neuron 52, 897-909, FIGS. 3M and 3N; cited from earlier work
Sequence of binding of D2R to NR2B (Q13224 27-1484): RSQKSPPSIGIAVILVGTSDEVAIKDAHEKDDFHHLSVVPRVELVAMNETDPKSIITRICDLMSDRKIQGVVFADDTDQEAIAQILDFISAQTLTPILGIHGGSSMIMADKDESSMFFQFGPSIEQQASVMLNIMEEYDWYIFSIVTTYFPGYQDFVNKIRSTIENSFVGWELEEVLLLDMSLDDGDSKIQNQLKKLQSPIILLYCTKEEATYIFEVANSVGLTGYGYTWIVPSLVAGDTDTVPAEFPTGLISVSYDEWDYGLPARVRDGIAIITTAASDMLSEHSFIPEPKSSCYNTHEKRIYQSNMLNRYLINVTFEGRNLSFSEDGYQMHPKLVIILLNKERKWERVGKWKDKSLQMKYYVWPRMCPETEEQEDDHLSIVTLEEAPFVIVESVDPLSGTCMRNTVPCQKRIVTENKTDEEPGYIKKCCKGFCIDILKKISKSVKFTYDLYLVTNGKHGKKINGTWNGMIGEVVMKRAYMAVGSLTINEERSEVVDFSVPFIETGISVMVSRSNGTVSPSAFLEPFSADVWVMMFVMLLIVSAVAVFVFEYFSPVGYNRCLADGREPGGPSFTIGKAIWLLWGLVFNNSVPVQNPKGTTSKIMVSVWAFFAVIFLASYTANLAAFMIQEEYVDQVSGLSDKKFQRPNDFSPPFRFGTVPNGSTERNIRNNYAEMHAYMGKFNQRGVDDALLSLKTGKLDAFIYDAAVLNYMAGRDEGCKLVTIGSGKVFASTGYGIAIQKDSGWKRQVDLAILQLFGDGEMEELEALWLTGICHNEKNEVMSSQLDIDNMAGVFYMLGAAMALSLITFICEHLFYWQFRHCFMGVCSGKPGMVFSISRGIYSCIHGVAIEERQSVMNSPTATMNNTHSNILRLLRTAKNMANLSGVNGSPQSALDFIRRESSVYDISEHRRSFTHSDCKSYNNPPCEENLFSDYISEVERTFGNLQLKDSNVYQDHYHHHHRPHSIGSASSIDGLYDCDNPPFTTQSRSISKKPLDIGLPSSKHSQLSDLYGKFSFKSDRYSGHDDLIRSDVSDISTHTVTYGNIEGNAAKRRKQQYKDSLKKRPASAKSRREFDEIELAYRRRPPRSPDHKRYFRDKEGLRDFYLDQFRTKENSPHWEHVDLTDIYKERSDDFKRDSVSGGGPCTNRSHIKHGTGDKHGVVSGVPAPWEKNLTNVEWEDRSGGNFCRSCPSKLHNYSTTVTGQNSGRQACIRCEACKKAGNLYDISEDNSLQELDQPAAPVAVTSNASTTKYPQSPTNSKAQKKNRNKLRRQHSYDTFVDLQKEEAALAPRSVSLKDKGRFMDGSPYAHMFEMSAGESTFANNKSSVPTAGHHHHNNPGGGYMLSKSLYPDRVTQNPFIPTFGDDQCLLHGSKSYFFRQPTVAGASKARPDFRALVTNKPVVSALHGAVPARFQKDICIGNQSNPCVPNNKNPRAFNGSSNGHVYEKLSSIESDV

T1 sequence (Q01097 27-1482, other chains not shown): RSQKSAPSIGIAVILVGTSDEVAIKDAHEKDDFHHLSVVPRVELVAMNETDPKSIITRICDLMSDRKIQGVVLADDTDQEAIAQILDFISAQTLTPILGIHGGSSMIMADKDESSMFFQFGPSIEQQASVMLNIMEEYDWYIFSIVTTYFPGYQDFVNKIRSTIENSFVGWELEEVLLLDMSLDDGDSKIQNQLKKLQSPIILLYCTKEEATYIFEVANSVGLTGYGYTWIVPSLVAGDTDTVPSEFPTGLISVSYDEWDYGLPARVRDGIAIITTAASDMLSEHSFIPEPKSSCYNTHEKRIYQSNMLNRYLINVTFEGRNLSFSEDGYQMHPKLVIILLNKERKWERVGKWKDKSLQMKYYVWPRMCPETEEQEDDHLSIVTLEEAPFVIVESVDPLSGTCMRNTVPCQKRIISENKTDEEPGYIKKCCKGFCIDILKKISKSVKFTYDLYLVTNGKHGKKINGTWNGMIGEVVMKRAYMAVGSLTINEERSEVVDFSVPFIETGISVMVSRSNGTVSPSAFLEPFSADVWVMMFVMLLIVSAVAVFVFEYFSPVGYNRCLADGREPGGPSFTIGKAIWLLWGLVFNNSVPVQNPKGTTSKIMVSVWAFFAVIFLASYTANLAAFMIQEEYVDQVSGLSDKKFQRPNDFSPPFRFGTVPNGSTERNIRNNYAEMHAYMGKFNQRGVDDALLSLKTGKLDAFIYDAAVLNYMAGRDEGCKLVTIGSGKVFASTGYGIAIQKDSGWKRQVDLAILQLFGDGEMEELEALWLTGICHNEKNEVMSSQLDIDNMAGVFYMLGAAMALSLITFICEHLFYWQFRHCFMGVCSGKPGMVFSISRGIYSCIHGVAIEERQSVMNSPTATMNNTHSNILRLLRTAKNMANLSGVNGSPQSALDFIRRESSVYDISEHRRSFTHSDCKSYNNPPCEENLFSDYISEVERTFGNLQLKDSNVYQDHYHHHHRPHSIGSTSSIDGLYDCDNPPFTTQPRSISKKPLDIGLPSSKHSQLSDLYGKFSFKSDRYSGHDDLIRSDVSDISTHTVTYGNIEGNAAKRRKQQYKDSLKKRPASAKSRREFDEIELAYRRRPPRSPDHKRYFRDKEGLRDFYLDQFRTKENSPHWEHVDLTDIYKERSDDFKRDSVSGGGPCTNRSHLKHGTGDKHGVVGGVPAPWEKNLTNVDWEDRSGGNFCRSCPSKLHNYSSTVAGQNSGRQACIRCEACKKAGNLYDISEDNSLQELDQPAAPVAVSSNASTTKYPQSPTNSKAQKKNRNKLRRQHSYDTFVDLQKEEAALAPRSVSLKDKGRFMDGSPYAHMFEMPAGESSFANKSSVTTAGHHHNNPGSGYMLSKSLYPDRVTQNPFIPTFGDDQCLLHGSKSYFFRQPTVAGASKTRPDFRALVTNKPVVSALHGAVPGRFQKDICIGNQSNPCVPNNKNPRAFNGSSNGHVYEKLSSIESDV
T2 sequence (Q01097 27-1482, other chains not shown): as above

KL region of D2R: GST fusion protein containing the KL region of D2R (K226-L240) (KRSSRAFRAHLRAPL; also: GST fusion; UniProt P14416 226-240, looked up, fragment)
precipitation of NR2B by GST fusion protein (pulldown, Western blot) [1]: could not be precipitated

KIYIVLRRRRKRVNT [Pep1, KT polypeptide, K211-T225 of the IL3 region of D2R; tested in vivo fused to TAT]
D2R/NR2B interaction in hippocampus tissue (co-immunoprecipitation) ([2]; CPP mice and BS mice, single intraperitoneal administration 3 nmol/g, 1 hour after treatment, TAT only as control): competitively disrupted the D2R/NR2B interaction | interaction between D2R and NR2B ([2]; summary statement of the inventors' finding, no conditions given): successfully reduced the interaction between D2R and NR2B | activity distance of morphine-CPP mice [3]: significantly reduced the activity distance | expression of sensitization behavior (cocaine-induced) [4]: significantly inhibited the expression of sensitization behavior | expression of sensitization behavior (alcohol-induced) [5]: significantly inhibited the expression of sensitization behavior

P4: Liu et al. polypeptide of IL3 from D2R (1210-K226) lacking the motif TKRSSRAFRA (IKIYIVLRRRRKRVNTK; UniProt P14416 210-226, looked up, fragment) [Pep P4]
prevention of the binding of D2R to NR2B [6]: had no preventing effect

KIYIVLRRRRKRV [Pep3, variant of KT polypeptide, C-terminal truncated; tested fused to TAT]
activity distance of morphine-CPP mice [3]: significantly reduced the activity distance | expression of sensitization behavior (cocaine-induced) [4]: significantly inhibited the expression of sensitization behavior | expression of sensitization behavior (alcohol-induced) [5]: significantly inhibited the expression of sensitization behavior

KIYIVLGGGRKRVNT [Pep4, variant with the mid-segment RRR mutated to GGG; tested fused to TAT]
activity distance of morphine-CPP mice [3]: failed to significantly reduce the activity distance | expression of sensitization behavior (cocaine-induced) [4]: failed to inhibit the expression of sensitization behavior | expression of sensitization behavior (alcohol-induced) [5]: failed to inhibit the expression of sensitization behavior

KVC region of D2R: GST fusion protein containing the KVC region of D2R (K211-V270) (KIYIVLRRRRKRVNTKRSSRAFRAHLRAPLKGNCTHPEDMKLCTVIMKSNGSFPVNRRRV; cysteine pairing not given here; also: GST fusion)
precipitation of NR2B by GST fusion protein (pulldown, Western blot) [1]: precipitated with affinity

KIYIVLRRRGGGVNT [Pep5, variant with the mid-segment RKR mutated to GGG; tested fused to TAT]
activity distance of morphine-CPP mice [3]: failed to significantly reduce the activity distance | expression of sensitization behavior (cocaine-induced) [4]: failed to inhibit the expression of sensitization behavior | expression of sensitization behavior (alcohol-induced) [5]: failed to inhibit the expression of sensitization behavior

P5: Liu et al. polypeptide of IL3 from D2R containing motif T225-A234 (TKRSSRAFRA; UniProt P14416 225-234, looked up, fragment) [Pep P5]
prevention of the binding of D2R to NR2B [6]: successfully prevented the binding of D2R to NR2B

KT region of D2R: GST fusion protein containing the KT region of D2R (K211-T225) (KIYIVLRRRRKRVNT; also: GST fusion)
precipitation of NR2B by GST fusion protein (pulldown, Western blot) [1]: precipitated with affinity

YIVLRRRRKRVNT [Pep2, variant of KT polypeptide, N-terminal truncated; tested fused to TAT]
activity distance of morphine-CPP mice [3]: significantly reduced the activity distance | expression of sensitization behavior (cocaine-induced) [4]: significantly inhibited the expression of sensitization behavior | expression of sensitization behavior (alcohol-induced) [5]: significantly inhibited the expression of sensitization behavior

B1: IL3 region of D2R: GST fusion protein containing the IL3 region of D2R (K211-Q373) (protein)
chain: KIYIVLRRRRKRVNTKRSSRAFRAHLRAPLKGNCTHPEDMKLCTVIMKSNGSFPVNRRRVEAARRAQELEMEMLSSTSPPERTRYSPIPPSHHQLTLPDPSHHGLHSTPDSPAKPEKNGHAKDHPKIAKIFEIQTMPNGKTRTSLKTMSRRKLSQQKEKKATQ
modifications: left off: a dimerising Fc or GST; large carriers; small tags and cut ends
precipitation of NR2B by GST fusion protein (pulldown, Western blot) [1]: precipitated with affinity

Source: patent US20240424119A1, “USE OF POLYPEPTIDE IN RESISTANCE TO ADDICTION AND RELAPSE THEREOF, AND COMPLEX AND POLYPEPTIDE” (SHENZHEN CHENYANG BIOLOGICAL TECHNOLOGY CO., LTD, priority 2021, published 2024)
